In one series the target is T1, HER2 (Homo sapiens, UniProt P04626).
T1 construct: purchased Promega Corporation
Nature of the series: Kinase profiling assay (ADP-Glo), HER2. Type of series: biochemical. The conditions noted are these: 30 µM concentration. Here is the method:
(§1) The kinase profiling assay protocol (TK1 and TK-2) was applied according to the manufacturer‘s instructions (Promega Corporation, Madison, WI, USA) with few modifications. In regard to this protocol, the EGFR, HER2, HER4, IGF1R, InsR, KDR, PDGFR-α, PDGFR-β, ABL1, BRK, BTK, CSK, FYN A, LCK, LYN B, and SRC kinase stocks in the kinase strips were diluted with 95 µL 2.5x kinase buffer and their substrate stock in the substrate strip was diluted with 15 µL of 100 µM ATP solutions. Then, the kinase reactions were performed using 2 µL of the kinase working stocks, 2 µL of the ATP/substrate working stocks, and 1 µL of compound solution (0.1–100 µM) or 5% DMSO solution in the 384-well plate. After 4 h of incubation at room temperature, the activity of kinases was detected using ADP-Glo Kinase Assay (Promega Corporation, Madison, WI, USA) according to the manufacturer‘s protocol. Briefly, 5 µL of ADP-Glo reagent was added into each well of 384-well plate and the mixture was incubated at room temperature for 40 min to stop the kinase reaction and deplete any ATP remaining. Then, 10 µL Kinase Detection Reagent was added and the mixture was incubated for a further 30 min to convert the kinase-produced ADP to ATP, and then to light. […]

Series [1] has as its system human peripheral blood mononuclear cells (PBMCs). Description: MTT cytotoxicity assay, PBMCs. Type of series: cell-based. The conditions noted are these: Homo sapiens, PBMC, 72 h. Here is the method:
(§2) U251, T98G (Japanese Collection of Research Bioresources Cell Bank), and U87 human glioblastoma cell lines were incubated in Dulbecco’s Modified Eagle Medium (DMEM)/Ham’s F12 (Wako Pure Chemical Industries, Osaka, Japan), Eagle’s Minimum Essential Medium (EMEM; Wako Pure Chemical Industries, Osaka, Japan), and DMEM (Gibco/Thermo Fisher Scientific, Waltham, MA, USA) respectively, and supplemented with 10% fetal bovine serum (FBS; Sigma Aldrich, MO, USA). Jurkat human leukemic T-cell line was cultured in Roswell Park Memorial Institute (RPMI) 1640 (Wako Pure Chemical Industries, Osaka, Japan), supplemented with 10% FBS. PBMCs (Precision Bioservices, Frederick, MD, USA) were incubated in RPMI 1640 and supplemented with 10% human serum AB (HS) (Gemini, Woodland, CA, USA). All media were supplemented with 89 μg/mL streptomycin (Meiji Seika Pharma, Tokyo, Japan) at 37 °C in a humid atmosphere and 5% CO2. For each experiment, growing cells were plated at 4 × 10^4 cells/mL and 6 × 10^5 cells/mL into 24-well and 96-well microtiter tissue culture plates (Iwaki brand Asahi Glass Co., Chiba, Japan) respectively and incubated for 72 h before the addition of the drugs (the optimal cell number for cytotoxicity assays was determined in preliminary experiments). The stock solutions of the compounds and cisplatin (Sigma-Aldrich, St. Louis, MO, USA) in concentrations between 0.1–10 mM were prepared in dimethyl sulfoxide (DMSO; Wako Pure Chemical Industries, Osaka, Japan) and in H2O respectively, then were added to fresh culture medium. The concentration of DMSO and H2O in the final culture medium was 1% which had no effect on the cell viability.
(§3) The MTT (Dojindo Molecular Technologies, Kumamoto, Japan) assay was carried out using the U251, T98G, U87, Jurkat, and PBMC cells to determine the cytotoxicity of compounds 1–13 and cisplatin as previously described in the literature with small modifications. Treated cells were incubated with different concentrations (1–100 µM) of the compounds for 72 h at 37 °C in the CO2 incubator. About 100 µL (1.1 mg/mL) of MTT solution was added to each well and after further incubation for 4 h, formazan crystals formed. At the end of this period, the medium was removed and the formazan crystals were solubilized by the addition of 100 μL DMSO to each well. The absorbance was read on an Infinite M1000 plate reader (Tecan, Mannedorf, Switzerland) at a wavelength of 550 nm with background subtraction at 630 nm. All experiments were performed in triplicate and IC50 values were defined as the drug concentrations that reduced absorbance to 50% of control values.

For another series, the target named is T2, BRK (Homo sapiens, UniProt Q13882).
T2 construct: purchased Promega Corporation
Description: Kinase profiling assay (ADP-Glo), BRK. Type of series: biochemical. The conditions noted are these: 30 µM concentration. Here is the method: as §1

For the next series, the target named is T3, IGF1R (Homo sapiens, UniProt P08069).
T3 construct: purchased Promega Corporation
Description: Kinase profiling assay (ADP-Glo), IGF1R. Type of series: biochemical. The conditions noted are these: 30 µM concentration. Here is the method: as §1

The test system of series [2] is U87 human glioblastoma cells. Description: MTT cytotoxicity assay, U87 cells. Type of series: cell-based. The conditions noted are these: for IC50: Homo sapiens, U-87 MG, MTT, 72 h; for anticancer activity against U87 cells: at 100 µM concentration. Here is the method:
as §2, §3

For another series, the target named is T4, SRC (Homo sapiens, UniProt P12931).
T4 construct: purchased Promega Corporation
Nature of the series: Kinase profiling assay (ADP-Glo), SRC. Type of series: biochemical. The conditions noted are these: 30 µM concentration. Here is the method: as §1

The subject of series [3] is U251 human glioblastoma cells. Nature of the series: MTT cytotoxicity assay, U251 cells. Type of series: cell-based. The conditions noted are these: for IC50: Homo sapiens, U-251, MTT, 72 h; for anticancer activity against U251 cells: at 100 µM concentration. Here is the method:
as §2, §3

Another series deals with T5, LYN B (Homo sapiens, UniProt P07948).
T5 construct: purchased Promega Corporation
Nature of the series: Kinase profiling assay (ADP-Glo), LYN B. Type of series: biochemical. The conditions noted are these: 30 µM concentration. Here is the method:
as §1

The target in another series is T6, HER4 (Homo sapiens, UniProt Q15303).
T6 construct: purchased Promega Corporation
Description: Kinase profiling assay (ADP-Glo), HER4. Type of series: biochemical. The conditions noted are these: 30 µM concentration. Here is the method: as §1

The test system of series [4] is Jurkat human leukemic T-cells. Description: MTT cytotoxicity assay, Jurkat cells. Type of series: cell-based. Here is the method: as §2, §3
A further series deals with U251 cells. Description: Annexin V/ethidium homodimer III staining, apoptotic/necrotic cell detection. Type of series: cell-based, human. The conditions noted are these: 24 h; IC50 concentration (Figure 4 legend), 5 μM (method). Here is the method:
U251 cells (4 × 10^4 cells/well) were seeded in each well of a 24-well plate with compound 10 and cisplatin at 5 μM concentration for 24 h. Then, the apoptotic/necrotic/healthy cells detection kit protocol was applied according to the manufacturer’s instructions (PromoKine, Heidelberg, Germany) with few modifications. Briefly, the cells were washed twice with 1 × binding buffer and then treated with FITC-Annexin V (5 μL), ethidium homodimer III (5 μL), and Hoechst 33342 (5 μL) for 20 min at room temperature in a protected-light environment. After washing in 1 × binding buffer, cells were analyzed under an all-in-one fluorescence microscope Biorevo Fluorescence BZ-9000 (Keyence, Osaka, Japan). Healthy cells, apoptotic cells, late apoptotic or necrotic cells, and necrotic cells were counted as previously described.

The target of another series is T7, ABL1 (Homo sapiens, UniProt P00519).
T7 construct: purchased Promega Corporation
Nature of the series: Kinase profiling assay (ADP-Glo), ABL1. Type of series: biochemical. The conditions noted are these: 30 µM concentration. Here is the method:
as §1

A further series has as its target T8, EGFR (Homo sapiens, UniProt P00533).
T8 construct: purchased Promega Corporation
Description: Kinase inhibition assay (ADP-Glo), EGFR. Type of series: biochemical. Here is the method:
The kinase profiling assay protocol (TK1 and TK-2) was applied according to the manufacturer‘s instructions (Promega Corporation, Madison, WI, USA) with few modifications. In regard to this protocol, the EGFR, HER2, HER4, IGF1R, InsR, KDR, PDGFR-α, PDGFR-β, ABL1, BRK, BTK, CSK, FYN A, LCK, LYN B, and SRC kinase stocks in the kinase strips were diluted with 95 µL 2.5x kinase buffer and their substrate stock in the substrate strip was diluted with 15 µL of 100 µM ATP solutions. Then, the kinase reactions were performed using 2 µL of the kinase working stocks, 2 µL of the ATP/substrate working stocks, and 1 µL of compound solution (0.1–100 µM) or 5% DMSO solution in the 384-well plate. After 4 h of incubation at room temperature, the activity of kinases was detected using ADP-Glo Kinase Assay (Promega Corporation, Madison, WI, USA) according to the manufacturer‘s protocol. Briefly, 5 µL of ADP-Glo reagent was added into each well of 384-well plate and the mixture was incubated at room temperature for 40 min to stop the kinase reaction and deplete any ATP remaining. Then, 10 µL Kinase Detection Reagent was added and the mixture was incubated for a further 30 min to convert the kinase-produced ADP to ATP, and then to light.

The test system of series [5] is T98G human glioblastoma cells. Description: MTT cytotoxicity assay, T98G cells. Type of series: cell-based. The conditions noted are these: for IC50: Homo sapiens, T98G, MTT, 72 h; for anticancer activity against T98G cells: at 100 µM concentration. Here is the method:
as §2, §3

The target of a further series is T9, FYN A (Homo sapiens, UniProt P06241).
T9 construct: purchased Promega Corporation
Description: Kinase profiling assay (ADP-Glo), FYN A. Type of series: biochemical. The conditions noted are these: 30 µM concentration. Here is the method:
as §1

For the next series, the target named is T10, BTK (Homo sapiens, UniProt Q06187).
T10 construct: purchased Promega Corporation
Nature of the series: Kinase profiling assay (ADP-Glo), BTK. Type of series: biochemical. The conditions noted are these: 30 µM concentration. Here is the method:
as §1

In a further series the test system is K562 cells. The arrangement: method as in PMID 31574910. The conditions noted are these: previously reported by the authors; cited from earlier work.
The next series deals with K562 CML cell line. On the set-up: method as in PMID 31574910. The conditions noted are these: previously reported by the authors; read-out: IC50, cytotoxic activity against K562 CML cell line; cited from earlier work.
The target of a further series is ABL1 kinase. On the set-up: method as in PMID 31574910. The conditions noted are these: previously reported by the authors; read-out: ABL1 kinase inhibition IC50; cited from earlier work.

T8 sequence (P00533 25-1210): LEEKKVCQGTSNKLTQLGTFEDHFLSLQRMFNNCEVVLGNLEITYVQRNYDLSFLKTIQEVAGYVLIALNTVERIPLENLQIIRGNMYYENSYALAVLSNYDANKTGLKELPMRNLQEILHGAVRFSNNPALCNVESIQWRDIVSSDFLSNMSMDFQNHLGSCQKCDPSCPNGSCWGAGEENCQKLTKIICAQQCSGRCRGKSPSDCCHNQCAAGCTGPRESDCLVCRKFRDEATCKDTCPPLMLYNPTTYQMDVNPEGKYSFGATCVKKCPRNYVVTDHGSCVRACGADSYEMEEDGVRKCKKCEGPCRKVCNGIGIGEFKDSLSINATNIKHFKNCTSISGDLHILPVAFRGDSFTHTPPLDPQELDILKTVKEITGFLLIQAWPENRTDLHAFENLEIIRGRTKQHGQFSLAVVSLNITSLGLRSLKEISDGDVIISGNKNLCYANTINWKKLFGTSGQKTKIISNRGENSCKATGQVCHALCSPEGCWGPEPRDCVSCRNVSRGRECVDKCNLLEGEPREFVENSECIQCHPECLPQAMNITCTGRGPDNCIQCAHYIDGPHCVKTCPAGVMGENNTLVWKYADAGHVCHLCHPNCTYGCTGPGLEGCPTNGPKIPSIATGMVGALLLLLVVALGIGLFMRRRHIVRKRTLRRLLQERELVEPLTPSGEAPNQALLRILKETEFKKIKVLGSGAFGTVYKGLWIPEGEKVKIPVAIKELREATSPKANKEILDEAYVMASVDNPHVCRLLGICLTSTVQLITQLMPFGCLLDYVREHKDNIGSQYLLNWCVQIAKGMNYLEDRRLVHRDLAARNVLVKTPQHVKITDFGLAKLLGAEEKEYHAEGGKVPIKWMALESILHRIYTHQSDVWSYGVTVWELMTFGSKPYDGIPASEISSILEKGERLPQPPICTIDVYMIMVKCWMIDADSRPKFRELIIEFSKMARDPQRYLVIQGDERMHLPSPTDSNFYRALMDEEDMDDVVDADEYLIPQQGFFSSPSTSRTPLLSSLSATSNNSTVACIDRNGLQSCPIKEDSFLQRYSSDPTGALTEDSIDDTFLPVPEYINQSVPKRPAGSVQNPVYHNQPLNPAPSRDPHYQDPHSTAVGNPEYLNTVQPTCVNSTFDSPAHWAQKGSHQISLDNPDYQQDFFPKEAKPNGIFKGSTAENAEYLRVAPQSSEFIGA
T2 sequence (Q13882 whole entry): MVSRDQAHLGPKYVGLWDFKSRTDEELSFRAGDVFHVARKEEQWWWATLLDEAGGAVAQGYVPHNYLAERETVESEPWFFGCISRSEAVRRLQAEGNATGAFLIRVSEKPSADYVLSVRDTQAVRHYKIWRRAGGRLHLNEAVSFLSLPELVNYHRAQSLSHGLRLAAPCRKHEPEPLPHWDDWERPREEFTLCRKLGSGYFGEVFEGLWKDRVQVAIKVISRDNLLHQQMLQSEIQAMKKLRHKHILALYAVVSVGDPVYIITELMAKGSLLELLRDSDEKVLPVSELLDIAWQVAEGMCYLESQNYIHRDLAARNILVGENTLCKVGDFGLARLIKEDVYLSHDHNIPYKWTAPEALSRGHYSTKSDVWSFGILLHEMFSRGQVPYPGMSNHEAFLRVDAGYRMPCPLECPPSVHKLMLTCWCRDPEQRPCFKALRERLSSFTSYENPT
T7 sequence (P00519 whole entry): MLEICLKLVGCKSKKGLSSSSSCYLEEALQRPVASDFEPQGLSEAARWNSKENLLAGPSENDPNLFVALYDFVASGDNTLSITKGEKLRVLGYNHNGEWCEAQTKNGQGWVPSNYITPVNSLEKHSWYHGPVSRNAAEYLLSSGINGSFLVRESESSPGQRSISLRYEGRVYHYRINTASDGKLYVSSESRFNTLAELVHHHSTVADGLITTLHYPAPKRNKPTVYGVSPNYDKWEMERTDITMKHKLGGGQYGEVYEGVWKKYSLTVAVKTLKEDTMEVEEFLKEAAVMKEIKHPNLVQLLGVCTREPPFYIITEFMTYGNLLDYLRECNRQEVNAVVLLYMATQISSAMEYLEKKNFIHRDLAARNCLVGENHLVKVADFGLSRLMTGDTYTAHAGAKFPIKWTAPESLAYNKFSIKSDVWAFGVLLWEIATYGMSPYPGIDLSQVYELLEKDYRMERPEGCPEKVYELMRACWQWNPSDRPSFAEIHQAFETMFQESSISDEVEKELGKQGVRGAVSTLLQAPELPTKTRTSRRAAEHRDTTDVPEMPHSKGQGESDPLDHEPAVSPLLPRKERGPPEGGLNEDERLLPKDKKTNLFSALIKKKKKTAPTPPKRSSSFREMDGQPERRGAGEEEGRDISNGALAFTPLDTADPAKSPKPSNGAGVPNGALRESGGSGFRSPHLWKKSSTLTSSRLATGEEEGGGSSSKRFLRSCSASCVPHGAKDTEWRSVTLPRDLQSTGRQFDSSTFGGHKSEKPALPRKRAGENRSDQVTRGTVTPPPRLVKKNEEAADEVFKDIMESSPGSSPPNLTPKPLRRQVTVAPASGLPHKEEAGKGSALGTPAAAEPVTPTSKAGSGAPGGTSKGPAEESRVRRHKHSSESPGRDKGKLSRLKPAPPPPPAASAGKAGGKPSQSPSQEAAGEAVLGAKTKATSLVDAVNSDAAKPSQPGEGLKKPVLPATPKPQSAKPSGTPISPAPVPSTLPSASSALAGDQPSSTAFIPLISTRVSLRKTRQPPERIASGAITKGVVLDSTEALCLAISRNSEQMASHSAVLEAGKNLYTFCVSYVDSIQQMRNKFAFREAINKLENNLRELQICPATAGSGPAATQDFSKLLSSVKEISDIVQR
T6 sequence (Q15303 26-1308): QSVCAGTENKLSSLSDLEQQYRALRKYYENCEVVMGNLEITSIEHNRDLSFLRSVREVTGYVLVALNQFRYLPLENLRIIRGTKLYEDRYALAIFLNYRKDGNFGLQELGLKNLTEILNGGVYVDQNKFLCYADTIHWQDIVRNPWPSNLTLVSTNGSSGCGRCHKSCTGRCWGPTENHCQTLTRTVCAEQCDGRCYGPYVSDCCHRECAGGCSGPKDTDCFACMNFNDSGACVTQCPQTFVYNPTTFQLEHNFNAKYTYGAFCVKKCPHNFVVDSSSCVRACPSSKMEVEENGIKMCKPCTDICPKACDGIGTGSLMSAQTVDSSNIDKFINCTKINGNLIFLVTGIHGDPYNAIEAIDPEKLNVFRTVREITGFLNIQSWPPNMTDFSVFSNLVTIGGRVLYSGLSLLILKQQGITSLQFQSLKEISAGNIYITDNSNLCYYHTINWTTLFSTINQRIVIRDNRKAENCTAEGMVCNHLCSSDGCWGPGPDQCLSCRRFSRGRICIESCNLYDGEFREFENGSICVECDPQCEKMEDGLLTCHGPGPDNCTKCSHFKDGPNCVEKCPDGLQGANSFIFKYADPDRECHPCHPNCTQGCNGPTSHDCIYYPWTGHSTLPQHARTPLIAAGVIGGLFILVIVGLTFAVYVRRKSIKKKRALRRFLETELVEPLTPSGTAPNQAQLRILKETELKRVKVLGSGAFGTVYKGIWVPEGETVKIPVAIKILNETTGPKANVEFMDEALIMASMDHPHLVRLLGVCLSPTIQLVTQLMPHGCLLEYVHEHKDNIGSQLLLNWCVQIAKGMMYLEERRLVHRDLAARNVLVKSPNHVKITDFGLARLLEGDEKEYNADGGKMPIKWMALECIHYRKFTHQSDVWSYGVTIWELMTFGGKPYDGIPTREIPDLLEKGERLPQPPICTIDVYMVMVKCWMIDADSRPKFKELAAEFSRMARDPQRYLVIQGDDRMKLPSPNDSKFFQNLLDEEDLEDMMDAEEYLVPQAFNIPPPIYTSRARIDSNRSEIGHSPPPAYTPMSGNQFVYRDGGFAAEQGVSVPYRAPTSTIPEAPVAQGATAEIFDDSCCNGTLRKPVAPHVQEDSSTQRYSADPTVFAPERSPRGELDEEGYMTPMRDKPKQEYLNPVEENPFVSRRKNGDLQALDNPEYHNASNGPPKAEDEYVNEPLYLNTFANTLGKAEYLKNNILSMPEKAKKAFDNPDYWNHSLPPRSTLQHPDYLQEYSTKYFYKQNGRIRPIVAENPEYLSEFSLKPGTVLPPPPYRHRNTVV
T10 sequence (Q06187 whole entry): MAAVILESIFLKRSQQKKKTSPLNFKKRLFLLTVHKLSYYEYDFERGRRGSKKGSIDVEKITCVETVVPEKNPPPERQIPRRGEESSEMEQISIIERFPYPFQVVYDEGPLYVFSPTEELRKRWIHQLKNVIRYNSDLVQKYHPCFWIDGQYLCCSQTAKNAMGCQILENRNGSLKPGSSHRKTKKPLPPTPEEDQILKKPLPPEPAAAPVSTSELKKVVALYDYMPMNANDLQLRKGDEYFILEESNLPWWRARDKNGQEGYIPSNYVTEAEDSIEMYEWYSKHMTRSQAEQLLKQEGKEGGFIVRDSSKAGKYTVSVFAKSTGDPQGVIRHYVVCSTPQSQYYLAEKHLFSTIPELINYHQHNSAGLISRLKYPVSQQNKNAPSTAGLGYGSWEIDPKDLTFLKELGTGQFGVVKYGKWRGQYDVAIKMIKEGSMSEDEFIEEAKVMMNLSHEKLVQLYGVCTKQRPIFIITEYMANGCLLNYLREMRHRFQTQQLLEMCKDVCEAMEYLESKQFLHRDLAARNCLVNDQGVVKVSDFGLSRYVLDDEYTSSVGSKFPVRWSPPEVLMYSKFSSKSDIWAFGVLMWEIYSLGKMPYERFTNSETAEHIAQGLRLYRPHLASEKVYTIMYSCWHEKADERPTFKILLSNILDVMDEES

`C[C@@H](NCC1(C)C(O)CCC2(C)C1CCC1(C)C2CC=C2C3CC(C)(C)CCC3(C(=O)O)CCC21C)c1ccccc1` (stereo partly drawn) [Compound 10, 10-Hydroxy-2,2,6a,6b,9,12a-hexamethyl-9-[(((R)-1-phenylethyl)amino)methyl]-1,2,3,4,4a,5,6,6a,6b,7,8,8a,9,10,11,12,12a,12b,13,14b-icosahydropicene-4a-carboxylic acid] yielded a melting point of 240 to 243 °C. For the same compound, the HER2 inhibition result at HER2 is “moderate”. Half-maximal inhibition in series [1] (IC50) was put at 28.1 ± 5.05 µM. The BRK inhibition result at BRK is given as “no significant inhibition”. The IGF1R inhibition entry at IGF1R is recorded as “no significant inhibition”. In series [2], 17 ± 4.92 µM corresponded to half-maximal inhibition (IC50). Further, on SRC, the SRC inhibition result is “no significant inhibition”. The midpoint of inhibition in series [3], the IC50, lay at 5.82 ± 1.66 µM. In addition, the “LYN B inhibition” value on LYN B was “no significant inhibition”. The HER4 inhibition entry on HER4 is on record as “no significant inhibition”. Besides, in [4] (Homo sapiens, Jurkat, MTT, 72 h), the IC50 is 3.56 ± 1.45 µM. The “SI (selectivity index)” value in [4] (SI = IC50 for PBMCs/IC50 for Jurkat cells) worked out at 7.90. The “apoptosis in U251 cells” value in the series with U251 cells worked out at 10.29%. Also, at ABL1, the ABL1 inhibition entry is on record as “moderate”. At EGFR (30 µM concentration, stronger inhibition of EGFR than InsR), the “EGFR inhibition relative to InsR inhibition” value is “approximately 2 fold”. Half-maximal inhibition at EGFR (ADP-Glo kinase assay) (IC50) required 9.43 µM. Inhibition in series [5] was half-maximal at 8.19 ± 2.42 µM (IC50). Besides, the “FYN A inhibition” value on FYN A was “moderate”. Moreover, on BTK, the BTK inhibition entry was “no significant inhibition”.
On to `CC1(C)CC[C@]2(C(=O)OCc3cc(C(F)(F)F)cc(C(F)(F)F)c3)CC[C@]3(C)C(=CC[C@@H]4[C@@]5(C)CC[C@H](O)[C@@](C)(C=O)[C@@H]5CC[C@]43C)[C@@H]2C1` [Compound 8], for which, in series [2], the 50% inhibitory concentration (IC50) is > 100 µM and the “anticancer activity against U87 cells” value is listed as “no significant anticancer activity”. Besides, in series [3], the IC50 was > 100 µM and the “anticancer activity against U251 cells” value is listed as “no significant anticancer activity”. Further, in series [5], the IC50 was > 100 µM and the “anticancer activity against T98G cells” value is given as “no significant anticancer activity”. The “apoptosis in K562 cells” value with K562 cells is on record as 24%. Besides, the IC50 in the series with K562 CML cell line is 4.78 µM.
Regarding `CC1(C)CC[C@]2(C(=O)OCc3ccccc3)CC[C@]3(C)C(=CC[C@@H]4[C@@]5(C)CC[C@H](O)C(C)(C)[C@@H]5CC[C@]43C)[C@@H]2C1` [Compound 5], the IC50 on ABL1 kinase was 1.44 µM; in series [2] it was > 100 µM; in series [3], > 100 µM; in [5], > 100 µM; in the series with K562 CML cell line, 5.46 µM. For the same compound, in [2], the “anticancer activity against U87 cells” value is reported as “no significant anticancer activity”. For the same compound, in series [3], the “anticancer activity against U251 cells” value is reported as “no significant anticancer activity”. Further, the “anticancer activity against T98G cells” value in [5] was “no significant anticancer activity”.

The values above are taken from article PMC8537327, “EGFR-Targeted Pentacyclic Triterpene Analogues for Glioma Therapy” (International Journal of Molecular Sciences, 2021).
